This is an account of results in patent US7893094B2, “Amphiphilic pyridinium compounds, method of making and use thereof” (The Henry M. Jackson Foundation for the Advancement of …, priority 2003, dated 2011).

The term IC50 denotes the concentration that inhibits the measured activity by half.

This experiment concerns IL-8 secretion from CF IB-3 cells. The experiment in a line: Suppression of spontaneously-elevated (constitutive) IL-8 secretion in IB-3 CF lung epithelial cells, IL-8 ELISA normalised to DNA. It counts as cell-based. As to conditions: for loss of potency: IL-8 secretion, relative to the most potent analogue, Compound 3. Here is the method: The CF lung epithelial cells IB3 and S9 have been previously described [Zeitlin et al., 1991; Eidelman et al., 2001a)]. Both […] and S9 cells were grown in serum-free LHC-8 medium (Biofluids), formulated without gentimycin. CF tracheal epithelial cells (2CFTE29o-) were obtained from University of Vermont. The latter cells were grown in EMEM (Biofluids), supplemented with 10% fetal bovine serum (FBS) and 1% Penicillin G-Streptomycin.
Initial assays for dug effects in the screening paradigm were performed in duplicate at 10, 3, 1, and 0.3 μM concentrations on IB-3 cells grown in 96 well microtiter plates. Each individual plate contained IB-3 and IB-3/S9 cells to set the boundary conditions of the assay. CPX and DAX, 5 μM each, were included in separate wells as positive controls. “Hits” in the screen were chosen on the basis of at least a 50% reduction in constitutive IL-8 secretion. Following a positive retest, candidate compounds were taken off-line for more detailed analysis under the exact same assay conditions. […] In most circumstances we use a maximum final solvent concentration of 0.1% DMSO or 0.01% ETOH.
The details of this assay have been described in a previous publication (Eidehman et la., 2001 a). Briefly, IB-3 cells are grown in 96 well microtiter plates to 80% confluency. Drugs, diluted in LHC-8 medium at the given concentrations, are added, and the cells allowed to incubate for an additional 24 hours. To initiate the experiment, cells are washed with fresh LHC-8 medium, and then incubated for an additional 16 hours in the same medium supplemented with drug. At the end of the time period, the supernatant solutions are collected and assayed for IL-8 by and ELISA assay. Alternatively, the samples are immediately frozen at −80° C. […] The IL-8 ELISA assay was assembled from bulk materials purchased from R&D, and performed exactly according to the manufacturers specifications. To detect possible drug toxicity on cells, as well as normalize to total cells per well, we measure the double stranded DNA content of cells attached to the plate after removal of supernatant solutions for IL-8 assay. Cells remaining on the plate are then fixed with 10% formalin for 30 minutes at room temperature before being incubated with propidium iodide (kit from Boehringer Mannheim). Propidium iodide content in each well is then measured with an automated fluorescence plate reader (FLUOstar Optima, MBG Lab Technologies). Final IL-8 data are calculated as a ratio of secreted IL-8 to DNA for each well. On occasion, cell proliferation assays are also carried out using the XTT assay (Roche).
Background: An ELISA detects its analyte on a solid surface through an enzyme-linked reagent.

[1] abbreviates: inhibition of IL-8 secretion from CF IB-3 cells, Table 3 prints no unit (b104 gives μM for Compound 3), read-out: IC50.

Where two headings read alike, the source gives them in different places.

Regarding “8-(3-carboxyamido-pyridinium)-n-octylα-methyl-2-(4[2-methylpropyl]benzene)-acetate iodide [Compound 18]”, the IC50 under setting [1] came out at 5.56 ± 0.98 µM.

As for “8-Pyridinium-n-octyl benzoate iodide [Compound 11]”, the IC50 under setting [1] is over 30 µM.

Take “8-Pyridinium-n-octyl propionate iodide [Compound 7]”: the loss of potency came to 34 fold. Under setting [1], the IC50 is 12 ± 0.8 µM.

`C[C@H](OCc1ccccc1)C(=O)OCCCCCCCC[n+]1ccccc1` [Compound 10, S-8-Pyridinium-n-octyl α-benzyloxy-2-propionate iodide]: under setting [1], the IC50 was over 30 µM.

On to `CC(C(=O)OCCCCCCCC[n+]1ccccc1)c1ccc(NC(=O)OC(C)(C)C)cc1.[I-]` (stereo not drawn) [Compound 16], for which the “activity on IL-8 secretion/production, in words” value was “retention of the activity”. The IC50 under setting [1] was 4.6 ± 0.9 µM.

`CC(C(=O)OCCCCCCCC[n+]1ccccc1)c1ccc(N)cc1.I.[I-]` (stereo not drawn) [Compound 17, 8-Pyridinium-n-octyl α-methyl-2-[4-ammonium-phenyl]acetate iodide]: the “activity on IL-8 secretion/production, in words” value is “eliminated activity”. In addition, the half-maximal inhibitory concentration (IC50) under setting [1] is over 30 µM.

Consider `CC(C)Cc1ccc([C@H](C)C(=O)OCCCCCCCC[N+]2(C)CCOCC2)cc1.[Br-]` [Compound 21, S-8-[N-Methylmorpholinium-n-octyl α-methyl-2-(4]2-methylpropyl]benzene)acetate bromide], for which the half-inhibitory concentration (IC50) under setting [1] was determined as 24 ± 1 µM.

On to “R-8-Pyridinium-n-butyl α-methyl-2-phenylacetate iodide [Compound 1]”, for which the IC50 under setting [1] was over 30 µM.

Take “R-8-Pyridinium-n-decyl α-methyl-2-phenylacetate iodide [Compound 4]”: the IC50 under setting [1] turned out to be 2.52 ± 0.39 µM.

As to “R-8-Pyridinium-n-hexyl α-methyl-2-phenylacetate iodide [Compound 2]”, the 50% inhibitory concentration (IC50) under setting [1] is over 30 µM.

Take “R-8-Pyridinium-n-octyl 2-hydroxy-3-phenylpropionate iodide [Compound 12]”: the “activity on IL-8 secretion/production, in words” value was “no activity was evident”. Moreover, the IC50 under setting [1] was over 30 µM.

On to “R-8-Pyridinium-n-octyl α-ethyl-2-phenylacetate iodide [Compound 8]”, for which the “activity on IL-8 secretion/production, in words” value was “eliminated the activity”. In addition, the concentration for half-maximal inhibition (IC50) under setting [1] stood at 3.16 ± 0.52 µM.

“R-8-Pyridinium-n-octyl α-hydroxy-α-methyl-2-phenylacetate iodide [Compound 6]”: the “activity on IL-8 secretion/production, in words” value was “failed to restore the activity”. In addition, the IC50 under setting [1] was over 30 µM.

“R-8-Pyridinium-n-octyl α-methyl-2-phenylacetate iodide [Compound 3]”: the IC50 (IB-3 CF cells, read-out: IC50, inhibition of IL-8 secretion) is 0.35 µM. Further, where the note is “IL-8 production, Compound 3 (R) versus its enantiomer Compound 5”, the “stereoselectivity of action in favor of the (R)-isomer” value is over 70 fold.

“S,S-1.8-di((α-methyl 2-(4-[2-methylpropyl]phenyl acetoxy)-n-octane [Compound 22]”: the “activity on IL-8 secretion/production, in words” value is on record as “eliminated the activity”. The IC50 under setting [1] was over 30 µM.

With “S-8-(4-2-hydroxy-ethyl)pyridinium)-n-octyl α-methyl-2-(4-[2-methylpropyl]benzene)acetate bromide [Compound 20]”, under setting [1], the IC50 was 18 ± 0.9 µM.

Take “S-8-(4-n-Prolpylpyridinium)-n-octyl α-methyl-2-(4-[2-methylpropyl]benzene)acetate bromide [Compound 19]”: under setting [1], the IC50 was found to be 3.3 ± 0.5 µM.

As for “S-8-Pyridinium-n-octyl 2-hydroxy-3-phenylpropionate iodide [Compound 13]”, the “activity on IL-8 secretion/production, in words” value is reported as “no activity was evident”. Besides, the 50% inhibitory concentration (IC50) under setting [1] is over 30 µM.

Regarding “S-8-Pyridinium-n-octyl α-methoxy-2-phenylacetate iodide [Compound 9]”, the “activity on IL-8 secretion/production, in words” value is recorded as “failed to restore the activity”. Besides, under setting [1], the IC50 was over 30 µM.

“S-8-Pyridinium-n-octyl α-methyl-2-(4-[2-methylpropyllbenzeneacetate bromide [Compound 15]” registered a loss of potency of 6 fold. The IC50 under setting [1] turned out to be 2.2 ± 0.8 µM.

With “S-8-Pyridinium-n-octyl α-methyl-2-phenylacetate iodide [Compound 5]”, the “activity on IL-8 secretion/production, in words” value is “much less active”. The IC50 under setting [1] was over 25 µM.
